This is an account of results in US6395733B1, “Heterocyclic ring-fused pyrimidine derivatives” (Pfizer Inc, priority 1999, dated 2002).

Series [1] has as its system transplanted human mammary carcinoma which expresses epidermal growth factor receptor tyrosine kinase (EGFR). The note with it: athymic nude mice; cited from earlier work.
The test system of series [2] is another carcinoma which does not express the EGF receptor. The note with it: athymic nude mice; cited from earlier work.

What is called melting point is the temperature of the solid-liquid transition.

As for `C#Cc1cccc(Nc2ncnc3cc(C)ncc23)c1.Cl`, the melting point lay within 240 to 241 °C.

Compound `Clc1ccc2c(c1)N(c1ncnc3cnccc13)CC2` returned a melting point of 194 to 196 °C.

In turn, `Cc1cccc(Nc2ncnc3cnccc23)c1` had a melting point of 172 °C.

Take `Cl.Clc1ccc2c(c1)N(c1ncnc3[nH]ccc13)CC2`: the melting point is 266 °C (dec.).

Consider `c1ccc(Nc2ncnc3ncccc23)cc1`, for which the melting point was 258 °C.

For `c1ccc(Nc2ncnc3cnccc23)cc1`, the melting point turned out to be 161 °C.

As for `Oc1cc2ncnc(N3CCc4ccc(Cl)cc43)c2[nH]1`, the melting point was 250 °C (dec.).

In the case of `Cl.c1nc(Nc2ccc3[nH]ccc3c2)c2cc[nH]c2n1`, the melting point is 218 to 221 °C.

Regarding `C#Cc1cccc(Nc2ncnc3c2ccn3CCOCCOC)c1`, the melting point fell in the range of 240 to 241 °C.

With `C#Cc1cc(Nc2ncnc3cnc(C)cc23)ccc1F`, the melting point came out at 225 °C.

Compound `Cc1cc2c(Nc3ccc(O)c(C)c3)ncnc2cn1.Cl.Cl` yielded a melting point of 298 to 305 °C.

For `Cc1cc2c(N3CCc4c(Br)ccc(C)c43)ncnc2cn1.Cl`, the melting point was 232 to 244 °C.

As to `Cc1cc2c(N3CCc4ccc(Br)c(C)c43)ncnc2cn1.Cl`, the melting point fell in the range of 212 to 229 °C.

In turn, `Cc1cc2c(N3CCc4cc(F)c(Br)cc43)ncnc2cn1.Cl` gave a melting point of 262 to 264 °C.

`Cc1cc2c(Nc3ccc(F)c(Cl)c3)ncnc2cn1.Cl` returned a melting point of 251 to 258 °C.

`Cc1cc2c(Nc3cccc(C(F)(F)F)c3)ncnc2cn1.Cl` came in with a melting point of 269 to 270 °C.

In the case of `Cc1cc2c(Nc3ccc(F)c(C)c3)ncnc2cn1.Cl`, the melting point lay in the range of 246 to 250 °C.

For `Cc1cc2c(Nc3ccc(O)c(I)c3)ncnc2cn1.Cl`, the melting point lay in the range of 261 to 265 °C.

`Cc1cc2c(Nc3ccc(Br)c(F)c3)ncnc2cn1.Cl` had a melting point of 251 to 254 °C.

Compound `Cl.c1cc2c(Nc3ccc4sccc4c3)ncnc2cn1` yielded a melting point of 280 to 282 °C.

The compound `C#Cc1cccc(Nc2ncnc3cnc(C)cc23)c1.Cl` came in with a melting point of 250 to 252 °C.

As for `Cc1cc2c(N3CCc4ccc(Cl)cc43)ncnc2cn1`, the melting point fell in the range of 232 to 234 °C.

The compound `CS(=O)(=O)O.Cc1cc2c(Nc3ccc4[nH]ccc4c3)ncnc2cn1` displayed a melting point of 262 to 263 °C.

In the case of `O=CN/C=C/c1cc(O)ccc1O` [erbstatin], in series [1], the “growth of transplanted human mammary carcinoma expressing EGFR” value is on record as “selectively attenuates the growth”. The “growth of carcinoma not expressing the EGF receptor” value in series [2] is reported as “without effect on the growth”.
